Laboratory results: ChEMBL document CHEMBL6127052, “Discovery of membrane-targeting amphiphilic honokiol derivatives containing an oxazolethione moiety to combat methicillin-resistant Staphylococcus aureus (MRSA) infections” (Eur J Med Chem, 2024)

system: Staphylococcus aureus; assay: Antibacterial activity against methicillin-resistant Staphylococcus aureus clinical isolate M12 by CLSI based micro-broth dilution method; format: functional

Structure (SMILES) | MIC [µg/mL]
C=CCc1cc(-c2ccc(OCCC[N+](C)(C)CC(=O)NCCCC)c(CC=C)c2)c2oc(=S)n(Cc3ccc(Cl)cc3Br)c2c1.[Br-] | > 128
C=CCc1cc(-c2ccc(OCCC[N+](C)(C)CC(=O)NCCCC)c(CC=C)c2)c2oc(=S)n(Cc3cc(Br)ccc3F)c2c1.[Br-] | 8

system: Staphylococcus aureus; assay: Antibacterial activity against methicillin-resistant Staphylococcus aureus clinical isolate M11 by CLSI based micro-broth dilution method; format: functional

Structure (SMILES) | MIC [µg/mL]
C=CCc1cc(-c2ccc(OCCC[N+](C)(C)CC(=O)NCCCC)c(CC=C)c2)c2oc(=S)n(Cc3ccc(Cl)cc3Br)c2c1.[Br-] | 128
C=CCc1cc(-c2ccc(OCCC[N+](C)(C)CC(=O)NCCCC)c(CC=C)c2)c2oc(=S)n(Cc3cc(Br)ccc3F)c2c1.[Br-] | 8

system: Staphylococcus aureus; assay: Antibacterial activity against Staphylococcus aureus ATCC 29213 by CLSI based micro-broth dilution method; format: functional

Structure (SMILES) | MIC [µg/mL]
C=CCc1cc(-c2ccc(OCCC[N+](C)(C)CC(=O)NCCCC)c(CC=C)c2)c2oc(=S)n(Cc3ccc(Cl)cc3Br)c2c1.[Br-] | > 128
C=CCc1cc(-c2ccc(OCCC[N+](C)(C)CC(=O)NCCCC)c(CC=C)c2)c2oc(=S)n(Cc3cc(Br)ccc3F)c2c1.[Br-] | 16

system: not listed separately; assay: Hemolytic activity in sheep erythrocytes incubated for 1 hr by absorbance based assay; format: toxicity, cell-based, Ovis aries, Erythrocyte

Structure (SMILES) | HC50 at 1 h [µg/mL]
C=CCc1cc(-c2ccc(OCCC[N+](C)(C)CC(=O)NCCCC)c(CC=C)c2)c2oc(=S)n(Cc3ccc(Cl)cc3Br)c2c1.[Br-] | 95.8
C=CCc1cc(-c2ccc(OCCC[N+](C)(C)CC(=O)NCCCC)c(CC=C)c2)c2oc(=S)n(Cc3cc(Br)ccc3F)c2c1.[Br-] | > 160

system: Staphylococcus aureus; assay: Antibacterial activity against methicillin-resistant Staphylococcus aureus clinical isolate M17 by CLSI based micro-broth dilution method; format: functional

Structure (SMILES) | MIC [µg/mL]
C=CCc1cc(-c2ccc(OCCC[N+](C)(C)CC(=O)NCCCC)c(CC=C)c2)c2oc(=S)n(Cc3ccc(Cl)cc3Br)c2c1.[Br-] | > 128
C=CCc1cc(-c2ccc(OCCC[N+](C)(C)CC(=O)NCCCC)c(CC=C)c2)c2oc(=S)n(Cc3cc(Br)ccc3F)c2c1.[Br-] | 32

system: not listed separately; assay: Selectivity index, ratio of HC50 for hemolytic activity in sheep erythrocytes to MIC for antibacterial activity against Staphylococcus aureus ATCC 29213; format: toxicity, cell-based, RBC

Structure (SMILES) | selectivity ratio
C=CCc1cc(-c2ccc(OCCC[N+](C)(C)CC(=O)NCCCC)c(CC=C)c2)c2oc(=S)n(Cc3ccc(Cl)cc3Br)c2c1.[Br-] | 0.7
C=CCc1cc(-c2ccc(OCCC[N+](C)(C)CC(=O)NCCCC)c(CC=C)c2)c2oc(=S)n(Cc3cc(Br)ccc3F)c2c1.[Br-] | > 10

system: Staphylococcus aureus; assay: Antibacterial activity against methicillin-resistant Staphylococcus aureus clinical isolate M22 by CLSI based micro-broth dilution method; format: functional

Structure (SMILES) | MIC [µg/mL]
C=CCc1cc(-c2ccc(OCCC[N+](C)(C)CC(=O)NCCCC)c(CC=C)c2)c2oc(=S)n(Cc3ccc(Cl)cc3Br)c2c1.[Br-] | 128
C=CCc1cc(-c2ccc(OCCC[N+](C)(C)CC(=O)NCCCC)c(CC=C)c2)c2oc(=S)n(Cc3cc(Br)ccc3F)c2c1.[Br-] | 16

system: Staphylococcus aureus; assay: Antibacterial activity against methicillin-resistant Staphylococcus aureus clinical isolate M23 by CLSI based micro-broth dilution method; format: functional

Structure (SMILES) | MIC [µg/mL]
C=CCc1cc(-c2ccc(OCCC[N+](C)(C)CC(=O)NCCCC)c(CC=C)c2)c2oc(=S)n(Cc3ccc(Cl)cc3Br)c2c1.[Br-] | 128
C=CCc1cc(-c2ccc(OCCC[N+](C)(C)CC(=O)NCCCC)c(CC=C)c2)c2oc(=S)n(Cc3cc(Br)ccc3F)c2c1.[Br-] | 16

system: Staphylococcus aureus; assay: Antibacterial activity against methicillin-resistant Staphylococcus aureus clinical isolate M20 by CLSI based micro-broth dilution method; format: functional

Structure (SMILES) | MIC [µg/mL]
C=CCc1cc(-c2ccc(OCCC[N+](C)(C)CC(=O)NCCCC)c(CC=C)c2)c2oc(=S)n(Cc3ccc(Cl)cc3Br)c2c1.[Br-] | > 128
C=CCc1cc(-c2ccc(OCCC[N+](C)(C)CC(=O)NCCCC)c(CC=C)c2)c2oc(=S)n(Cc3cc(Br)ccc3F)c2c1.[Br-] | 8

system: Staphylococcus aureus; assay: Antibacterial activity against methicillin-resistant Staphylococcus aureus N315 by CLSI based micro-broth dilution method; format: functional

Structure (SMILES) | MIC [µg/mL]
C=CCc1cc(-c2ccc(OCCC[N+](C)(C)CC(=O)NCCCC)c(CC=C)c2)c2oc(=S)n(Cc3ccc(Cl)cc3Br)c2c1.[Br-] | 128
C=CCc1cc(-c2ccc(OCCC[N+](C)(C)CC(=O)NCCCC)c(CC=C)c2)c2oc(=S)n(Cc3cc(Br)ccc3F)c2c1.[Br-] | 16

system: Staphylococcus aureus; assay: Antibacterial activity against methicillin-resistant Staphylococcus aureus clinical isolate M16 by CLSI based micro-broth dilution method; format: functional

Structure (SMILES) | MIC [µg/mL]
C=CCc1cc(-c2ccc(OCCC[N+](C)(C)CC(=O)NCCCC)c(CC=C)c2)c2oc(=S)n(Cc3ccc(Cl)cc3Br)c2c1.[Br-] | 128
C=CCc1cc(-c2ccc(OCCC[N+](C)(C)CC(=O)NCCCC)c(CC=C)c2)c2oc(=S)n(Cc3cc(Br)ccc3F)c2c1.[Br-] | 8

system: Staphylococcus aureus; assay: Antibacterial activity against methicillin-resistant Staphylococcus aureus clinical isolate M13 by CLSI based micro-broth dilution method; format: functional

Structure (SMILES) | MIC [µg/mL]
C=CCc1cc(-c2ccc(OCCC[N+](C)(C)CC(=O)NCCCC)c(CC=C)c2)c2oc(=S)n(Cc3ccc(Cl)cc3Br)c2c1.[Br-] | > 128
C=CCc1cc(-c2ccc(OCCC[N+](C)(C)CC(=O)NCCCC)c(CC=C)c2)c2oc(=S)n(Cc3cc(Br)ccc3F)c2c1.[Br-] | 16

system: Staphylococcus aureus; assay: Antibacterial activity against methicillin-resistant Staphylococcus aureus clinical isolate M14 by CLSI based micro-broth dilution method; format: functional

Structure (SMILES) | MIC [µg/mL]
C=CCc1cc(-c2ccc(OCCC[N+](C)(C)CC(=O)NCCCC)c(CC=C)c2)c2oc(=S)n(Cc3ccc(Cl)cc3Br)c2c1.[Br-] | > 128
C=CCc1cc(-c2ccc(OCCC[N+](C)(C)CC(=O)NCCCC)c(CC=C)c2)c2oc(=S)n(Cc3cc(Br)ccc3F)c2c1.[Br-] | 8

system: Escherichia coli; assay: Antibacterial activity against Escherichia coli ATCC 25922 by CLSI based micro-broth dilution method; format: functional

Structure (SMILES) | MIC [µg/mL]
C=CCc1cc(-c2ccc(OCCC[N+](C)(C)CC(=O)NCCCC)c(CC=C)c2)c2oc(=S)n(Cc3ccc(Cl)cc3Br)c2c1.[Br-] | > 128
C=CCc1cc(-c2ccc(OCCC[N+](C)(C)CC(=O)NCCCC)c(CC=C)c2)c2oc(=S)n(Cc3cc(Br)ccc3F)c2c1.[Br-] | > 128

system: Staphylococcus aureus; assay: Antibacterial activity against methicillin-resistant Staphylococcus aureus clinical isolate M21 by CLSI based micro-broth dilution method; format: functional

Structure (SMILES) | MIC [µg/mL]
C=CCc1cc(-c2ccc(OCCC[N+](C)(C)CC(=O)NCCCC)c(CC=C)c2)c2oc(=S)n(Cc3ccc(Cl)cc3Br)c2c1.[Br-] | 128
C=CCc1cc(-c2ccc(OCCC[N+](C)(C)CC(=O)NCCCC)c(CC=C)c2)c2oc(=S)n(Cc3cc(Br)ccc3F)c2c1.[Br-] | 8
